One series deals with Tetrabenazine. Kind of series: animal or person. The format is in vivo. The note with it: read-out: ED50 Tetrabenazine Antagonism.
A further series is described as follows: LD50 (acute toxicity). As to conditions: in vivo.
The nature of a further series: in vivo. The format is in vivo. As to conditions: in vivo; ratio of LD50 to ED50 tetrabenazine antagonism (head is a drawing); read-out: Dosage [drawing 7].

These results are taken from patent US4258043A, “Pyrazino-carbazoles, process for the production thereof and pharmaceutical agents” (Cassella Aktiengesellschaft, priority 1979, dated 1981).

Counter-ions that a name gives are not always drawn.

On to `Cc1ccc2c(c1)c1c3n2CCNC3CCC1.Cl` (centres unmarked) [8-methyl-2,3,3a,4,5,6-hexahydro-1H-pyrazino[3,2,1-jk]carbazole-hydrochloride, reference compound], for which the ED50 in the series with Tetrabenazine was found to be 14 mg/kg. This compound also came in with an LD50 in the series “LD50 (acute toxicity)” of 122 mg/kg.

In the case of `Cc1ccc2c(c1)c1c3n2CCN=C3CCC1` [Example 1, 8-methyl-2,4,5,6-tetrahydro-1H-pyrazino[3,2,1-jk]carbazole], the selectivity ratio in “in vivo” amounted to 18. Also, the 50% effective dose (ED50) in the series with Tetrabenazine was determined as 4 mg/kg. The LD50 in the series “LD50 (acute toxicity)” was determined as 72 mg/kg.

Turning to `COc1ccc2c(c1)c1c3n2CCN=C3CCC1` [Example 2, 8-methoxy-2,4,5,6-tetrahydro-1H-pyrazino[3,2,1-jk] carbazole-hydrochlorides], the selectivity ratio in the series “in vivo” was determined as 18.5. Further, the median effective dose (ED50) in the series on Tetrabenazine turned out to be 2 mg/kg. Moreover, the median lethal dose (LD50) in “LD50 (acute toxicity)” came out at 37 mg/kg.

As a reminder, the ED50 is the midpoint of the dose-response relation. The term LD50 denotes the dose expected to kill half of the subjects tested.
